From patent publication US20080145465A1, “Sesquiterpene lactone extract from artemisia leucodes for reducing inflammation and down-regulating pro-inflammatory gene expression” (priority 2006, published 2008)
In brackets after ≈: the same amount, converted by molar mass. Several values for one entry are separate records, joined by “and”; a condition that tells them apart may be missing. Equal entries are not always repeated. Where two headings read alike, the source gives them in different places.

Columns and labels:
[1] = system: nitric oxide (NO) production from RAW macrophages; assay: Griess assay for NO production by LPS-stimulated RAW macrophages; assay type: cell-based, murine; conditions: LPS 1 μg/mL, 24 hours, n = 8, % of control
[2] = biological target: T1, COX-2 (Ovis aries, UniProt P79208); assay: Colorimetric COX inhibitor screening assay, COX-2; assay type: biochemical, ovine
T1 construct: purchased Cayman Chemical Company
T1 sequence (P79208 17-603): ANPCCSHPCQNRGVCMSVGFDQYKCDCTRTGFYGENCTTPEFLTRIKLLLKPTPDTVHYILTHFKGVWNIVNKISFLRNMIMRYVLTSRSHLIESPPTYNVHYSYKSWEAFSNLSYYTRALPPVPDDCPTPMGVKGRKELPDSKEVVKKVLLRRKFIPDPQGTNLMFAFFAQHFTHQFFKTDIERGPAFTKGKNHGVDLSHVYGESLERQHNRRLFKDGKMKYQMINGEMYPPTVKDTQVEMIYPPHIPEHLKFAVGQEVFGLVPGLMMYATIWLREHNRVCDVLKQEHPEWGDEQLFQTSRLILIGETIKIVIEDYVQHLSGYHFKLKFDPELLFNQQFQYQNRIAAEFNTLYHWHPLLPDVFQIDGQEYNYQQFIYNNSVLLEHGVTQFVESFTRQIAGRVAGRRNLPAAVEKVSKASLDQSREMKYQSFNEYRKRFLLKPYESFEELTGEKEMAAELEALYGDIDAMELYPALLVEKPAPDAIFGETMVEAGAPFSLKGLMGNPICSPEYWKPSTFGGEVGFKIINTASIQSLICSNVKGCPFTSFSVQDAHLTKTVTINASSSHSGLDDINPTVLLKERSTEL
Procedure: An ovine COX inhibitor screening assay (Cayman Chemical Company, Ann Arbor, Mich.) was used to measure inhibition of purified COX-1 and COX-2. This assay measures the peroxidase component of cyclooxygenases colorimetrically by monitoring the appearance of oxidized N,N,N′,N′-tetramethyl-p-phenylenediamine (TMPD) at 590 nm. Tablets of Vioxx (rofecoxib; Merck & Co., Inc., Whitehouse Station, N.J.) were ground and dissolved in methanol (1 mg/mL) to use as a positive control. AL-1, leukomisin, and austricin were also dissolved in methanol at 1 mg/mL. The assay was performed following manufacturer instructions. Vioxx, vehicle (100% initial activity), or treatments were added to a 96-well plate along with 180 μL assay mixture provided by the manufacturer containing 150 μL assay buffer, 10 μL heme, and 10 μL enzyme (COX-1 or COX-2). A background correction row received no enzyme and 10 μL additional assay buffer. After 5 min incubation at room temp, 20 μL of a colorimetric substrate solution containing TMPD and 20 μL arachadonic acid diluted in assay buffer were added to the plate. The plate was incubated for 5 min and the absorbance was read at 590 nm using a microplate reader (Molecular Devices, Sunnyvale, Calif.). To calculate percent inhibition, average absorbance was calculated for each sample (n=3). The background blank well absorbance was subtracted from each sample.
[(100% Initial activity-Blank)−(Treatment-Blank)/(100% Initial activity-Blank)]*100

[3] = system: nitric oxide (NO) production from RAW macrophages; assay: Griess assay for NO production by LPS-stimulated RAW macrophages; assay type: cell-based, murine; conditions: for NO production (relative to control), mean ± SE: LPS 1 μg/mL, 24 hours, n = 8, % of control; for IC50: read-out: IC50, inhibition of NO production
Procedure: RAW 264.7 murine monocyte/macrophages (ATCC TIB-71) were maintained in Dulbecco's Modified Eagle Medium (D-MEM, Invitrogen Corp., Carlsbad, Calif.) supplemented with 10% fetal bovine serum (FBS, Invitrogen Corp., Carlsbad, Calif.) and 1% streptomycin and were kept in a humidified 37° C. incubator with 5% CO2. Cells were subcultured by scraping when plates reached 90% confluency with a 1:5 ratio.
Down-regulation of various pro-inflammatory genes including iNOS, IL1β, and TNF-α can reduce nitric oxide production by macrophages. In order to confirm that changes in pro-inflammatory gene expression were affecting cellular function, the Griess assay was performed to indirectly measure nitric oxide production by LPS-induced macrophages by measuring nitrite (Misko et al., 1993). For the assay, RAW cells were plated in a 24-well plate at a minimum density of 0.4×10^6 cells/well and grown for 24 hours. A stock solution of AL-1 was created by completely dissolving dry extract as in Example 1 in 95% ethanol. Cells were stimulated with 1 μg/mL LPS with simultaneous addition of AL-1 (10-100 μg/mL), aspirin (10 mM), or vehicle control (0.5% ethanol), maintaining a final concentration of 0.5% ethanol for every treatment. After 24 hours, conditioned media (50 μl) was removed and immediately mixed with 100 μl of Griess reagent (10% sulfanilamide, 1% naphthalene-ethylenediamine dihydrochloride in 5% H3PO4, all from Sigma, St. Louis, Mo.). After incubation for 15 minutes at room temperature, the samples were read at 550 nm using a microplate spectrophotometer (Molecular Devices, Sunnyvale, Calif.). Data for each treatment were normalized based on results from an MTS cell proliferation assay.
A CellTiter 96 assay kit (Promega Corp. Madison, Wis.) was used to determine the relative number of viable cells remaining after incubation with treatments. For the assay, old media containing treatments or controls was removed from the 96-well plates and replaced with 100 μL fresh media per well. Next, 20 μL MTS/PMS reagent ([3-(4,5-dimethylthiazol-2-yl)-5-(3-carboxymethoxyphenyl)-2-(4-sulfophenyl)-2H-tetrazolium plus phenazine methosulfate) was added to each well followed by a three hour incubation period at 37° C., 5% CO2. Plates were read using a microplate reader (Molecular Devices, Sunnyvale, Calif.) at 490 nm. A blank row corrected for background noise and data was expressed as a percent of the LPS control. Each treatment was tested on three different plates with 8 wells on each plate for a total of 24 wells.

[4] = read-out: percent inhibition of COX-2 enzyme activity, mean ± SE

Compound	NO production (relative to control), mean ± SE ([1]; 2 μg/ml) [%]	NO production (relative to control), mean ± SE ([1]; 4 μg/ml) [%]	IC50 ([2]; IC50, COX-2 inhibition, purified ovine COX-2) [µM]	IC50 ([2]; IC50, COX-2 inhibition, purified ovine COX-2, molar value in brackets) [µM]	inhibition at 45 µg/mL [2, 4] [%]	inhibition at 115 µg/mL [2, 4] [%]	inhibition at 225 µg/mL [2, 4] [%]	NO production (relative to control), mean ± SE ([3]; 20 μg/ml) [%]	NO production (relative to control), mean ± SE ([3]; 50 μg/ml) [%]	NO production (relative to control), mean ± SE ([3]; 100 μg/ml) [%]	IC50 ([3]; Mus musculus, Macrophage)	percent inhibition of COX-2 enzyme activity, mean ± SE ([2]; 45 μg/ml) [%]	percent inhibition of COX-2 enzyme activity, mean ± SE ([2]; 115 μg/ml) [%]	percent inhibition of COX-2 enzyme activity, mean ± SE ([2]; 225 μg/ml) [%]	IC50, COX-2 inhibition ([2]; purified ovine COX-2) [µg/mL]	IC50 ([2]; purified ovine COX-2, read-out: IC50, COX-2 inhibition) [µM]	IC50, inhibition of NO production ([3]; RAW macrophages elicited with LPS) [µg/mL]	IC50 ([3]; RAW macrophages elicited with LPS, molar value in brackets) [µM]
CC1=CC(=O)C2=C(C)C[C@H](O)[C@@H]3[C@H](OC(=O)[C@H]3C)[C@@H]12 (single isomer, unassigned) [austricin]	100 ± 1	100 ± 1	1970	2000	19 ± 1	29 ± 2	31 ± 1	89 ± 1	89 ± 1	84 ± 2	440 µg/mL and 1.68 mM							
CC1=CC(=O)C2=C(C)CC[C@@H]3[C@H](OC(=O)[C@H]3C)[C@@H]12 [leukomisin]	100 ± 2	98 ± 1						82 ± 4	72 ± 1	64 ± 2		34 ± 1	51 ± 3	65 ± 5	129 (≈ 524 µM)	524	160	650
